Laboratory results: ChEMBL document CHEMBL1142825, “Synthesis and antiviral activity against Coxsackie virus B3 of some novel benzimidazole derivatives” (Bioorg Med Chem Lett, 2005)
Converted amounts (≈) assume the structure as drawn. “And” between values parts separate entries of the source, which are not always exact repeats. Identical values can stand only once.

Tests used:
Vero [1] = assay: Antiviral activity against Coxsackie virus B3 growth by 50% in Vero cells; format: functional, cell-based, Chlorocebus sabaeus
Vero [2] = assay: Selectivity index (TC50/IC50) against Coxsackie virus B3 in Vero cells; format: functional, Chlorocebus sabaeus
Vero [3] = assay: Cytotoxic concentration required to inhibit Vero cell growth by 50%; format: functional, Chlorocebus sabaeus; details: for CC50: Chlorocebus sabaeus, Vero, read-out: TC50 (the source's name)
Vero [4] = assay: Antiviral activity against Coxsackie virus B3 growth by 50% in Vero cells:not active; format: functional, cell-based, Chlorocebus sabaeus
[5] = Chlorocebus sabaeus, Vero, read-out: IC50

SMILES	IC50 (Vero [1]; [5]) [mg/L]	SI (Vero [2])	CC50 (Vero [3]) [mg/L]	IC50 (Vero [4])	IC50 (Vero [1]; vero) [mg/L]	TC50 (Vero [3])
O=C(Nc1cccc(Br)c1)c1cccc2[nH]c(-c3ccncc3)nc12	4.12 (≈ 10.5 µM)	2	< 8.24			
O=C(Nc1ccccc1F)c1cccc2[nH]c(-c3ccncc3)nc12			12.3 (≈ 37 µM)	Not Active		
O=C(Nc1ccccc1)c1cccc2[nH]c(-c3cccnc3)nc12	1.17 (≈ 3.72 µM)	9.17	10.7 (≈ 34.2 µM)			
O=C(Nc1ccccc1O)c1cccc2[nH]c(-c3ccncc3)nc12	4.05 (≈ 12.3 µM)	4.56	< 18.5			
Cc1ccccc1NC(=O)c1cccc2[nH]c(-c3ccncc3)nc12	2.42 (≈ 7.37 µM)	11.48 and 4.81			2.23 (≈ 6.79 µM)	<27.8 mg/L and <10.74 mg/L
O=C(Nc1cccc(O)c1)c1cccc2[nH]c(-c3ccncc3)nc12			< 5.9	Not Active		
NC(=O)c1cccc2[nH]c(-c3cccnc3)nc12	6.2 (≈ 26 µM)	2.98	18.5 (≈ 77.6 µM)			
O=C(Nc1ccc([N+](=O)[O-])cc1)c1cccc2[nH]c(-c3ccncc3)nc12	18.5 (≈ 51.5 µM)	2.99	< 55.5			
O=C(Nc1ccccc1)c1cccc2[nH]c(-c3ccccn3)nc12	1.43 (≈ 4.55 µM)	38.8	55.6 (≈ 177 µM)			
O=C(NCCO)c1cccc2[nH]c(-c3ccncc3)nc12			141 (≈ 498 µM)	Not Active		
O=C(Nc1ccccc1F)c1cccc2[nH]c(-c3cccnc3)nc12	3.23 (≈ 9.72 µM)	11.4	37 (≈ 111 µM)			
O=C(NCCO)c1cccc2[nH]c(-c3cccnc3)nc12	25.6 (≈ 90.6 µM)	7.51	192 (≈ 682 µM)			
NC(=O)c1cccc2[nH]c(-c3ccccn3)nc12	7.29 (≈ 30.6 µM)	7.32	53.4 (≈ 224 µM)			
O=C(Nc1ccc(Cl)cc1)c1cccc2[nH]c(-c3ccncc3)nc12	8.72 (≈ 25 µM)	2.35	< 20.9			
O=C(Nc1ccccc1)c1cccc2[nH]c(-c3ccncc3)nc12	3.85 (≈ 12.2 µM)	4.06	15.6 (≈ 49.8 µM)			
O=C(NCCO)c1cccc2[nH]c(-c3ccccn3)nc12	37 (≈ 131 µM)	4.32	160 (≈ 567 µM)			
O=C(Nc1ccccc1F)c1cccc2[nH]c(-c3ccccn3)nc12	0.54 (≈ 1.62 µM)	28.3	15.3 (≈ 46.1 µM)			
NC(=O)c1ncn([C@@H]2O[C@H](CO)[C@@H](O)[C@H]2O)n1 [RIBAVIRIN]	448 (≈ 1830 µM)	>2.23	> 1000			
